Data: US20240309015A1, “Methods for the Treatment of Fibrotic Disease” (SHY Therapeutics, LLC, priority 2021, published 2024)

Columns and labels:
Smad2/3 phosphorylation = assay: Phospho-Smad2/3 Inhibition Assay in PANC-1; type: cell-based; conditions: Homo sapiens; 10 μM compound, 3 h; TGF-b1 stimulated PANC-1; western blot; read-out: % inh of Smad2/3 phosphorylation in PANC-1
Method: Cell lines: Human tumor-derived pancreatic cancer cell line Panc-1 and mouse muscle myoblast C2C12 were purchased from American Type Culture Collection and grown in complete DMEM-High Glucose, supplemented with penicillin (100 U/mL), streptomycin (100 μg/mL), and 10% heat-inactivated FBS at 37° C. in a humidified incubator with 5% CO2.
Method: Cells were plated at 350000 cells/well density in a 12-well plate, allowed 3 hours to adhere to the plate, then starved in the appropriate medium in the presence of 0.5% FBS overnight. The small molecules to be tested were added to the cells in the final concentration of 10 μM in the presence of 0.3% DMSO for 3 hours incubation at 37° C. For IC50 value determination, serial dilutions of compounds were added to cells under the same conditions. Next, Panc-1 cells were stimulated with 10 ng/ml TGF-b1 for 1 hour, and C2C12 cells were stimulated with 10 ng/ml TGF-b1 for 20 minutes (recombinant human TGF-b1, R&D Systems). After stimulation cells were lysed with lysis buffer containing 1% Triton X-100, EDTA, and Halt™ Protease & Phosphatase Inhibitor Cocktail (Thermo Scientific). Protein concentration was assessed by BCA protein assay (Thermo Scientific). Phosphorylation level of Smad2/Smad3 was determined by western blot.
Western blot protocol: Equal amounts of protein (15-50 μg) were separated by SDS-PAGE and transferred to nitrocellulose membranes (Invitrogen by Thermo Fisher Scientific). The membrane was stained with Ponceau S Stain (Boston BioProducts) to verify uniform protein loading. Membranes were blocked with 10% milk and phosphorylation levels of Smad2/Smad3 were assessed by incubating overnight at 4° C. with the following antibodies: Phospho-Smad2 (Ser465/467) and Phosph-Smad3 (Ser423/425), both from Cell Signaling Technology. Then the membranes were incubated with HRP-conjugated secondary antibody (Jackson Immunoresearch, West Grove, PA). Bands were incubated in Amersham ECL Prime Western Blotting Detection Reagent (GE Healthcare) and visualized using the ChemiDoc MP imaging system (Bio-Rad).

IL-6 = assay: Mouse IL6 Quantification Assay (LPS-stimulated RAW 264.7); type: cell-based; parameters: dose or concentration left out as unconfirmed; conditions: RAW264.7, ELISA, read-out: IL-6: % inh.
Rho-A = assay: Ras GTP Binding Domain Inhibition Assay, Rho-A; conditions: at 20 μM; without SOS
In short: (§1)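 Compounds were tested at 20 μM final, or as dilution series for IC50, against nickel-plate-captured His-tagged GTPase proteins for 3 h at room temperature. Sos exchange factor could be present for the last hour. Labelled GTP (100 nM Cy3 or Cy5) was then bound for 45 min, wells were washed, and retained fluorescence was measured.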

KRas G12D mutant = assay: Ras GTP Binding Domain Inhibition Assay, KRas G12D mutant; conditions: at 20 μM; for KRas G12D mutant + SOS: % inh.: with SOS; for KRas G12D mutant: % inh.: without SOS
In short: as §1

TNFα = assay: Mouse TNF Alpha Quantification Assay (LPS-stimulated RAW 264.7); type: cell-based; parameters: dose or concentration left out as unconfirmed; conditions: RAW264.7, ELISA, read-out: TNFα: % inh.
KRas wild type = assay: Ras GTP Binding Domain Inhibition Assay, KRas wild type; conditions: at 20 μM; for KRas wild type + SOS: % inh.: with SOS; for KRas wild type: % inh.: without SOS
In short: as §1

KRas G12C mutant = assay: Ras GTP Binding Domain Inhibition Assay, KRas G12C mutant; conditions: at 20 μM; for KRas G12C mutant + SOS: % inh.: with SOS; for KRas G12C mutant: % inh.: without SOS
In short: as §1

Row | Rho-A: % inh. (Rho-A) | KRas G12D mutant + SOS: % inh. (KRas G12D mutant; Table 7) | KRas G12D mutant + SOS: % inh. (KRas G12D mutant; Table 8) | KRas G12D mutant: % inh. (KRas G12D mutant; Table 7) | KRas G12D mutant: % inh. (KRas G12D mutant; Table 8) | KRas wild type + SOS: % inh. (KRas wild type) | KRas wild type: % inh. (KRas wild type) | KRas G12C mutant + SOS: % inh. (KRas G12C mutant) | KRas G12C mutant: % inh. (KRas G12C mutant) | Structure (SMILES) | inhibition at 10 µM (Smad2/3 phosphorylation) [%] | inhibition (IL-6) [%] | inhibition (TNFα) [%]
1 | 0 (0 = 0% inhibition) | 0 (0 = 0% inhibition) | 0 (0 = 0% inhibition) | A (A = 1-25% inhibition) | A (A = 1-25% inhibition) | A (A = 1-25% inhibition) | A (A = 1-25% inhibition) | A (A = 1-25% inhibition) | 0 (0 = 0% inhibition) | COc1cc(Cn2c(-c3nccn3C)nc3sc(-c4ccn(C(C)C)n4)c(C)c3c2=O)ncn1 [Compound 35, 6-(1-Isopropyl-1H-pyrazol-3-yl)-3-((6-methoxypyrimidin-4-yl)methyl)-5-methyl-2-(1-methyl-1H-imidazol-2-yl)thieno[2,3-d]pyrimidin-4(3H)-one] | 0 | 1 to 25 | 1 to 25
2 | 0 (0 = 0% inhibition) | 0 (0 = 0% inhibition) | 0 (0 = 0% inhibition) | 0 (0 = 0% inhibition) | 0 (0 = 0% inhibition) | A (A = 1-25% inhibition) | A (A = 1-25% inhibition) | 0 (0 = 0% inhibition) | 0 (0 = 0% inhibition) | COCCCn1c(-c2nccn2C)nc2sc(-c3ccn(C(C)C)n3)c(C)c2c1=O [Compound 31, 6-(1-Isopropyl-1H-pyrazol-3-yl)-3-(3-methoxypropyl)-5-methyl-2-(1-methyl-1H-imidazol-2-yl)thieno[2,3-d]pyrimidin-4(3H)-one] | 0 | 46 to 75 | 0

Second part, the compound before the results:

Row | Structure (SMILES) | Rho-A: % inh. (Rho-A) | KRas G12D mutant + SOS: % inh. (KRas G12D mutant; Table 7) | KRas G12D mutant + SOS: % inh. (KRas G12D mutant; Table 8) | KRas G12D mutant: % inh. (KRas G12D mutant; Table 7) | KRas G12D mutant: % inh. (KRas G12D mutant; Table 8) | KRas wild type + SOS: % inh. (KRas wild type) | KRas wild type: % inh. (KRas wild type) | KRas G12C mutant + SOS: % inh. (KRas G12C mutant) | KRas G12C mutant: % inh. (KRas G12C mutant) | inhibition at 10 µM (Smad2/3 phosphorylation) [%] | inhibition (IL-6) [%] | inhibition (TNFα) [%]
3 | COCCCn1c(-c2nccn2C)nc2sc(-c3ccn(C(C)C)n3)c(-c3ccccc3)c2c1=O [Compound 36, 6-(1-Isopropyl-1H-pyrazol-3-yl)-3-(3-methoxypropyl)-2-(1-methyl-1H-imidazol-2-yl)-5-phenylthieno[2,3-d]pyrimidin-4(3H)-one] | 0 (0 = 0% inhibition) | 0 (0 = 0% inhibition) | 0 (0 = 0% inhibition) | 0 (0 = 0% inhibition) | 0 (0 = 0% inhibition) | A (A = 1-25% inhibition) | A (A = 1-25% inhibition) | A (A = 1-25% inhibition) | 0 (0 = 0% inhibition) | 0 | 46 to 75 | 0
4 | Cc1c(-c2ccn(C(C)C)n2)sc2nc(-c3nccn3C)nc(NCC3CCCO3)c12 (racemic) [Compound 26, rac-6-(1-Isopropyl-1H-pyrazol-3-yl)-5-methyl-2-(1-methyl-1H-imidazol-2-yl)-N-((tetrahydrofuran-2-yl)methyl)thieno[2,3-d]pyrimidin-4-amine] | D (D = 76-100% inhibition) | C (C = 46-75% inhibition) | C (C = 46-75% inhibition) | D (D = 76-100% inhibition) | D (D = 76-100% inhibition) | D (D = 76-100% inhibition) | D (D = 76-100% inhibition) | D (D = 76-100% inhibition) | D (D = 76-100% inhibition) | 0 | 76 to 100 | 0
5 | Cc1c(-c2ccn(C(C)C)n2)sc2nc(-c3nccn3C)nc(NCCN3CCS(=O)(=O)CC3)c12 [Compound 23, 4-(2-((6-(1-Isopropyl-1H-pyrazol-3-yl)-5-methyl-2-(1-methyl-1H-imidazol-2-yl)thieno[2,3-d]pyrimidin-4-yl)amino)ethyl)thiomorpholine 1,1-dioxide] | C (C = 46-75% inhibition) | D (D = 76-100% inhibition) | D (D = 76-100% inhibition) | D (D = 76-100% inhibition) | D (D = 76-100% inhibition) | D (D = 76-100% inhibition) | D (D = 76-100% inhibition) | D (D = 76-100% inhibition) | C (C = 46-75% inhibition) | 0 | 46 to 75 | 0
6 | Cc1c(-c2ccn(C(C)C)n2)sc2nc(-c3nccn3C)nc(NCC3COCCN3C)c12 (racemic) [Compound 24, rac-6-(1-Isopropyl-1H-pyrazol-3-yl)-5-methyl-2-(1-methyl-1H-imidazol-2-yl)-N-((4-methylmorpholin-3-yl)methyl)thieno[2,3-d]pyrimidin-4-amine] | C (C = 46-75% inhibition) | D (D = 76-100% inhibition) | D (D = 76-100% inhibition) | C (C = 46-75% inhibition) | C (C = 46-75% inhibition) | D (D = 76-100% inhibition) | B (B = 26-45% inhibition) | D (D = 76-100% inhibition) | C (C = 46-75% inhibition) | 0 | 76 to 100 | 1 to 25
7 | COc1cccc(Nc2nc(-c3nccn3C)nc3sc(-c4ccn(C(C)C)n4)c(C)c23)c1 [Compound 17, 6-(1-Isopropyl-1H-pyrazol-3-yl)-N-(3-methoxyphenyl)-5-methyl-2-(1-methyl-1H-imidazol-2-yl)thieno[2,3-d]pyrimidin-4-amine] | C (C = 46-75% inhibition) | C (C = 46-75% inhibition) | C (C = 46-75% inhibition) | C (C = 46-75% inhibition) | C (C = 46-75% inhibition) | C (C = 46-75% inhibition) | B (B = 26-45% inhibition) | D (D = 76-100% inhibition) | C (C = 46-75% inhibition) | 46 to 75 | 76 to 100 | 76 to 100
